Reference: PubChem BioAssay AID651733 (The Scripps Research Institute Molecular Screening Center, 2012)
The source made the active and inactive calls. The rule behind the calls is not given here.

Each compound was assayed against Perilipin-5 (Homo sapiens) + 1-acylglycerol-3-phosphate O-acyltransferase ABHD5 (Homo sapiens) (UniProt Q00G26+Q8WTS1) (assay: ABHD5-PLIN5 interaction inhibitors, dose response, cell lysate, luminescence, proteins expressed in HEK293T (AID 651733);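 note: split Gaussia princeps luciferase complementation between ABHD5 and MLDP fusion proteins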).
Perilipin-5 (Homo sapiens) + 1-acylglycerol-3-phosphate O-acyltransferase ABHD5 (Homo sapiens), sequence (Q00G26 whole entry, looked up, the tested form may be a part): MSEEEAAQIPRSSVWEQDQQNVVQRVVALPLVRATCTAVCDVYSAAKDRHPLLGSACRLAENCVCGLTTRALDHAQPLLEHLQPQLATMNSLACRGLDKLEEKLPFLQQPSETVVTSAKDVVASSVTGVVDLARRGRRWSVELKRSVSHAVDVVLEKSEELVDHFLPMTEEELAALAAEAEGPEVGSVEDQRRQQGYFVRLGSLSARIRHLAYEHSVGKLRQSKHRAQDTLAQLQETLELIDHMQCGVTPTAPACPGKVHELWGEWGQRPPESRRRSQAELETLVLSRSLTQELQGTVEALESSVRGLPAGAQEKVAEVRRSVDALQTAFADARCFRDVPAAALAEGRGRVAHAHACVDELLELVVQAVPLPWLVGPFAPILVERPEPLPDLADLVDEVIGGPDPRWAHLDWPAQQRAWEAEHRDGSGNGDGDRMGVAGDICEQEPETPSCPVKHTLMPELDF
Perilipin-5 (Homo sapiens) + 1-acylglycerol-3-phosphate O-acyltransferase ABHD5 (Homo sapiens), sequence (Q8WTS1 whole entry, looked up, the tested form may be a part): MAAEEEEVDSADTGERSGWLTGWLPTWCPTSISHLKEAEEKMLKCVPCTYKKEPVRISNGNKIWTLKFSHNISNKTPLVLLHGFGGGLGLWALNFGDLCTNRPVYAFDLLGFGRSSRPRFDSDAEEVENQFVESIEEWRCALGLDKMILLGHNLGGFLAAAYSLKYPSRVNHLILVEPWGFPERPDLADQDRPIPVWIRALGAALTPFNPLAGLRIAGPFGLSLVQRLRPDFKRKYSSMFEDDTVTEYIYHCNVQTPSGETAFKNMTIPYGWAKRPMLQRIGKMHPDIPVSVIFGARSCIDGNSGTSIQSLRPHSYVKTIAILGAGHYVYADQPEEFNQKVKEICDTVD

Going from `COc1ccc(C(C(=O)Nc2ccc3c(c2)OCCO3)n2c(=O)c(-c3ccco3)nc3ccccc32)cc1` (configuration not stated) to `Cc1cccc(C)c1NC(=O)C(c1ccc(C#N)cc1)n1c(=O)c(-c2ccco2)nc2ccccc21` (configuration not stated), the IC50 falls from 8.54 µM to 3.4 µM (2.5-fold). The second is the more potent here.

`CC1CCN(S(=O)(=O)c2ccc(NC(=O)Cc3cccs3)cc2)CC1` and `O=c1[nH]c(C2CCN(S(=O)(=O)c3ccc(F)cc3)CC2)nc2c1nnn2Cc1ccc2c(c1)OCCO2` are within 1.5-fold of each other in IC50: 8.04 µM for the first, 8.33 µM for the second.

Going from `O=C(NC1CCCCC1)C(c1ccccc1)n1c(=O)c(-c2ccco2)nc2ccccc21` (configuration not stated) to `O=C(NC1CCCCC1)C(c1ccccc1F)n1c(=O)c(-c2ccco2)nc2ccccc21` (configuration not stated), the IC50 rises from 1.94 µM to 4.15 µM (2.1-fold). The first is the more potent here.

`O=C(NC1CCCCC1)C(C1CC1)n1c(=O)c(-c2ccco2)nc2ccccc21` (configuration not stated) and `O=C(NC1CCCCC1)C(c1ccc(C(F)(F)F)cc1)n1c(=O)c(-c2ccco2)nc2ccccc21` (configuration not stated) are within 1.5-fold of each other in IC50: 5.09 µM for the first, 3.81 µM for the second.

Compared with `COc1ccc(OCc2cn(CC(=O)c3ccc(O)cc3)nn2)cc1`, `CC(=O)Nc1ccc(OCc2cn(CC(=O)c3ccc(O)cc3)nn2)cc1` is 1.5-fold lower in IC50: 5.67 µM for the first, 3.76 µM for the second. The second is the more potent here.

`CCCNC(=O)Nc1ccc2c(c1)N(C)C(=O)c1ccccc1S2` and `CCCCNC(=O)Nc1ccc2c(c1)N(C)C(=O)c1ccccc1S2` are within 1.5-fold of each other in IC50: 4.21 µM for the first, 3.6 µM for the second.

`CC1CN(Cc2c(O)ccc3c2oc(=O)c2ccccc23)CC(C)O1` (configuration not stated) and `CN1CCC[C@@H]1CCO[C@](C)(c1ccccc1)c1ccc(Cl)cc1` are within 1.5-fold of each other in IC50: 4.77 µM for the first, 6.93 µM for the second.

`CCC(=O)Nc1cccc(C(=O)/C=C/c2ccccc2)c1` and `Cc1nc(-c2ccccc2)sc1C(=O)/C=C/c1ccccc1` are within 1.5-fold of each other in IC50: 3.05 µM for the first, 2.35 µM for the second.

Going from `CCCCn1c(SCC(=O)NCc2ccco2)nnc1-c1ccoc1C` to `CC(CCc1ccco1)NC(=O)CCc1nnc2ccc(NCc3ccccc3Cl)nn12` (configuration not stated), the IC50 falls from 6.5 µM to 3.73 µM (1.7-fold).

Compared with `c1ccc(CCC2=NCCn3cccc32)cc1`, `Oc1c(C(c2ccccc2)N2CCCCC2)ccc2ccccc12` (configuration not stated) is 4.7-fold lower in IC50: 8.18 µM for the first, 1.73 µM for the second. The second is the more potent here.

Going from `COc1cc(C)c2sc3ccccc3c(=O)c2c1NCCN(C)C` to `Cc1cc(C)c(NC(=O)C[N+](C)(C)CC(O)COc2cccc3ccccc23)c(C)c1` (configuration not stated), the IC50 rises from 3.94 µM to 8.93 µM (2.3-fold).

`N#Cc1ccccc1OCc1cn(CC(=O)c2ccc(O)cc2)nn1` and `O=[N+]([O-])/C=C/c1cn(Cc2ccc(F)cc2)c2ccccc12` are within 1.5-fold of each other in IC50: 5.91 µM for the first, 7.06 µM for the second.

`O=C1CC(c2ccc(Cl)cc2)Oc2ccc(Cl)cc21` (configuration not stated) and `Cc1oc2c(c1C(=O)c1ccc(Cl)cc1)C(=O)C(=O)c1ccccc1-2` are within 1.5-fold of each other in IC50: 3.18 µM for the first, 4.38 µM for the second.

Compared with `O=C(O)CC(O)(CC(=O)O)C(=O)O`, `CCOC(=O)c1c(NC(=O)/C=C/C(=O)O)sc(C)c1-c1ccc(C(C)(C)C)cc1` is 1.7-fold higher in IC50: 3.54 µM for the first, 5.99 µM for the second.

Compared with `N#Cc1ccc(C(C(=O)NCc2ccccc2)n2c(=O)c(-c3ccco3)nc3ccccc32)cc1` (configuration not stated), `O=C(NCc1ccccc1)C(c1ccccc1F)n1c(=O)c(-c2ccco2)nc2ccccc21` (configuration not stated) is 1.6-fold higher in IC50: 2.85 µM for the first, 4.43 µM for the second. The first is the more potent here.

First: C#CCN(C[C@@H]1[C@@H](OC(=O)Nc2cccs2)[C@@H](OC(=O)Nc2cccs2)Cn2c(=O)ccc(=O)n21)S(=O)(=O)c1ccc(C)cc1
Second: O=C(Nc1ccc(Cl)cc1)/C(=C/c1cccc(O)c1)c1nc2ccccc2s1
The IC50 of the first is 1.8-fold higher: 3.06 µM for the first, 1.71 µM for the second.

`Cc1cccc(C)c1NC(=O)C(c1cccc2ccccc12)n1c(=O)c(-c2ccco2)nc2ccccc21` (configuration not stated) and `Cc1cccc(C)c1NC(=O)C(c1ccnc2ccccc12)n1c(=O)c(-c2ccco2)nc2ccccc21` (configuration not stated) are within 1.5-fold of each other in IC50: 4.15 µM for the first, 6.13 µM for the second.

`CCC(C(=O)OCCN(CC)CC)c1ccccc1` (configuration not stated) and `CCN(CC)CCC(C)OC(c1ccccc1)c1ccccc1` (configuration not stated) are within 1.5-fold of each other in IC50: 2.67 µM for the first, 3.29 µM for the second.

First: CCCCCCC=C1CCC(CN2CCCC2)C1=O (configuration not stated)
Second: CCOC(=O)N1CCN(C(=O)C[C@@H]2C[C@@]3(C(=O)OCC)CCC=C3N(Cc3ccc(Cl)cc3Cl)C2=O)CC1
The IC50 of the first is 3.5-fold lower: 2.15 µM for the first, 7.45 µM for the second.

`CC(C)c1ccc(N2C=Nc3ccc(C(C)C)cc3C2)cc1` and `CCCCCNC(=O)C(c1ccc(C#N)cc1)n1c(=O)c(-c2ccco2)nc2ccccc21` (configuration not stated) are within 1.5-fold of each other in IC50: 7.82 µM for the first, 6.63 µM for the second.

`O=C1NC(=S)NC(=O)C12C(c1ccccc1)NC(=S)NC2c1ccccc1` (configuration not stated) and `CC(C)(C)NC(=O)C(c1ccccc1)n1c(=O)c(-c2ccco2)nc2ccccc21` (configuration not stated) are within 1.5-fold of each other in IC50: 3.88 µM for the first, 3.62 µM for the second.

First: O=C(/C=C/c1ccccc1)CC(O)(c1ccccc1)C(F)(F)C(F)F (configuration not stated)
Second: O=C(NC1CCCCC1)C(c1cccc2ccccc12)n1c(=O)c(-c2ccco2)nc2ccccc21 (configuration not stated)
The IC50 of the first is 2.1-fold lower: 1.1 µM for the first, 2.33 µM for the second.

`CC1=CC(C)(C)Nc2ccc(OC(=O)c3cccnc3)cc21` and `CC1=CC(C)(C)Nc2ccc(OC(=O)CN3C(=O)C4CCCCC4C3=O)cc21` (configuration not stated) are within 1.5-fold of each other in IC50: 3.25 µM for the first, 4 µM for the second.

`CSc1nnc(NC(=O)c2nc(S(=O)(=O)Cc3ccccc3F)ncc2Cl)s1` and `CSc1nnc(NC(=O)c2nc(S(=O)(=O)Cc3cccc(C)c3)ncc2Cl)s1` are within 1.5-fold of each other in IC50: 3.66 µM for the first, 3.59 µM for the second.

`CCC(C)NC(=O)Nc1ccc2c(c1)N(C)C(=O)c1ccccc1S2` (configuration not stated) and `CCOC(=O)c1c(NC(C)=O)sc2c1CCC(C=O)=C2Sc1ccccc1` are within 1.5-fold of each other in IC50: 3.6 µM for the first, 3.1 µM for the second.

Compared with `CCCCCNC(=O)C(c1cccc2ccccc12)n1c(=O)c(-c2ccco2)nc2ccccc21` (configuration not stated), `CC(C)(C)NC(=O)C(c1ccnc2ccccc12)n1c(=O)c(-c2ccco2)nc2ccccc21` (configuration not stated) is 1.9-fold higher in IC50: 4.25 µM for the first, 8.16 µM for the second. The first is the more potent here.

`O=C1NC(=O)N(Cc2ccc(F)cc2)C(=O)/C1=C\C=C\c1ccco1` and `O=C1NC(=O)N(Cc2ccccc2)C(=O)/C1=C\C=C\c1ccco1` are within 1.5-fold of each other in IC50: 2.29 µM for the first, 2.53 µM for the second.

First: O=C(NC1CCCCC1)C(c1cc2ccccc2o1)n1c(=O)c(-c2ccco2)nc2ccccc21 (configuration not stated)
Second: CCOC(=O)/C(=C\c1ccc(Cl)cc1)c1nc2sc(C)c(C)c2c(=O)[nH]1
The IC50 of the first is 4-fold higher: 3.47 µM for the first, 0.862 µM for the second.

For `Cc1ccc(C(=O)/C=C/c2cc(Br)cc(Br)c2O)o1`, the IC50 was “inactive”.
In the case of `COC(=O)c1ccc(Cn2cc(/C=C\[N+](=O)[O-])c3ccccc32)o1`, the IC50 is reported as “inactive”.
`CC(=O)Oc1c(Br)cc(N(C(C)=O)S(=O)(=O)c2ccccc2)c2ccccc12` was tested, and the IC50 was “inactive”.
In the case of `C#CCOCCOCCOCCNc1nc(N2CCN(C(=O)CCCCCCCCCCNC(=O)[C@@H](CCSC)n3cc(CCO)nn3)CC2)nc(N2CCN(C(=O)CCCCCCCCCCNC(=O)[C@@H]([C@H](C)O)n3cc(C)nn3)CC2)n1`, the IC50 is reported as “inactive”.
For `Cc1ccc(SC2=C(Sc3ccc(C)cc3)C(=O)c3ccccc3C2=O)cc1`, the IC50 was “inactive”.
With `COCCN(CCOC)c1nc(N)c2c(N)nc3c(c2c1C#N)CC(=O)N3Cc1ccc(Cl)cc1` the IC50 was “inactive”.
In the case of `NC(=O)CCN1CCN(CCOC2Cc3cc(Cl)ccc3Sc3ccccc32)CC1` (configuration not stated), the IC50 is reported as “inactive”.
With `Cc1cccc(C)c1NC(=O)C(c1ccncc1)n1c(=O)c(-c2ccco2)nc2ccccc21` (configuration not stated) the IC50 was “inactive”.
`O=C(Cn1c(=O)n(Cc2ccco2)c(=O)c2c3c(sc21)CCCC3)Nc1ccccc1` was tested, and the IC50 was “inactive”.
In the case of `COc1ccc(C)c2sc(N(CCN(C)C)C(=O)/C=C/c3cccs3)nc12`, the IC50 is reported as > 13.3 µM (inactive).
With `CC1Sc2ccc(S(=O)(=O)N3CCC(C(=O)NCc4ccc(Cl)cc4)CC3)cc2NC1=O` (configuration not stated) the IC50 was “inactive”.
With `CCCCC(=O)NC(c1cccc([N+](=O)[O-])c1)c1ccc2cccnc2c1O` (configuration not stated) the IC50 was “inactive”.
In the case of `CCN(CC)CCNC(=O)c1ccc(NC(=O)c2cn(-c3ccccc3)nc2-c2cccs2)cc1`, the IC50 is reported as “inactive”.
For `O=C(C[n+]1cccc(CNC(=O)c2ccc(OC(F)F)cc2)c1)Nc1cccc(C(F)(F)F)c1`, the IC50 was “inactive”.
`FC(F)(F)c1cccc(NC(=S)N(CCCN2CCCC2)Cc2cccn2Cc2ccc(Cl)cc2)c1` was tested, and the IC50 was > 13.3 µM (inactive).
With `COc1ccc(NC(=O)C(c2ccccc2)n2c(=O)c(-c3ccco3)nc3ccccc32)cc1` (configuration not stated) the IC50 was “inactive”.
